# Measurements as given in patent publication US9365522B2, “Pyrazole amide derivative” (AMGEN INC., priority 2015, dated 2016).
# Molecular target: T1, ligand binding domain of human ROR gamma (Homo sapiens, UniProt P51449)
# T1 construct: NM_001001523; expressed in transfected cells; host or cells: HEK293T
# T1 sequence (P51449 247-497 isoform P51449-2): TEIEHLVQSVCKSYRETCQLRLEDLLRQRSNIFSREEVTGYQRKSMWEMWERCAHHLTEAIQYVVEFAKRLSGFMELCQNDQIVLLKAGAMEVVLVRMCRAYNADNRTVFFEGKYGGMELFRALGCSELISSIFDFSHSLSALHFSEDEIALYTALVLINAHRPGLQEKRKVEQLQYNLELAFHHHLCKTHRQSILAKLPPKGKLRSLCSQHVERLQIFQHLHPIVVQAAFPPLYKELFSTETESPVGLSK
# Assay: ROR gamma reporter gene assay (GAL4-RORγ LBD luciferase, Dual-Glo)
# Type: cell-based
# Settings: HEK293T cells transfected with pM-ROR gamma, 8 concentrations 3.5 nM to 10.5 μM, 24 h incubation; read-out: result (pIC50, inhibition of RORγ transcriptional activity) (converted)
# Procedure, shortened: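 Inhibition of RORγ-driven transcription was measured in HEK293T cells expressing a GAL4 fusion of the human RORγ LBD (aa 247-497), with renilla luciferase as internal control. Cells in 10% charcoal-stripped serum received compound (3.5 nM–10.5 μM) for 24 h.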
row,IC50 [pM],Structure (SMILES)
1,309000,"CC1(C)[C@@H]2C[C@H](N(CCc3n[nH]c4cccc(Cl)c34)C(=O)c3cnn([C@H]4CC[C@](C)(C(=O)O)CC4)c3C(F)(F)F)C[C@@H]21 [Example 376, trans-4-(4-((2-(4-chloro-1H -indazol-3-yl)ethyl)((1R,3r,5S)-6,6-dimethylbicyclo[3.1.0]hexan-3-yl)carbamoyl)-5-(trifluoromethyl)-1H-pyrazol-1-yl)-1-methylcyclohexanecarboxylic acid]"
2,437000,"CC(CN(C(=O)c1cnn([C@H]2CC[C@](C)(C(=O)O)CC2)c1C(F)(F)F)[C@H]1C[C@@H]2[C@H](C1)C2(C)C)c1c[nH]c2cccc(Cl)c12 (stereo partly drawn) [Example 377, trans-4-(4-((2-(4-chloro-1H-indol-3-yl)propyl)((1R,3r,5S)-6,6-dimethylbicyclo[3.1.0]hexan-3-yl)carbamoyl)-5-(trifluoromethyl)-1H-pyrazol-1-yl)-1-methylcyclohexanecarboxylic acid]"
3,74100,"CC1(CN(CC(=O)c2c(Cl)cncc2Cl)C(=O)c2cnn([C@H]3CC[C@](C)(C(=O)O)CC3)c2Cl)CC1 [Example 378, trans-4-(5-chloro-4-((2-(3,5-dichloropyridin-4-yl)-2-oxoethyl)-((1-methylcyclopropyl)methyl)carbamoyl)pyrazol-1-yl)-1-methylcyclohexane-1-carboxylic acid]"
4,79400,"Cc1cncc(Cl)c1C(=O)CN(CC(C)(C)C)C(=O)c1cnn([C@H]2CC[C@](C)(C(=O)O)CC2)c1C(F)(F)F [Example 379, trans-4-(4-((2-(3-chloro-5-methylpyridin-4-yl)-2-oxoethyl)-(2,2-dimethylpropyl)carbamoyl)-5-(trifluoromethyl)pyrazol-1-yl)-1-methylcyclohexane-1-carboxylic acid]"
5,83200,"CC1(C)[C@@H]2C[C@H](N(CCc3c[nH]c4cncc(Cl)c34)C(=O)c3cnn([C@H]4CC[C@](C)(C(=O)O)CC4)c3C(F)(F)F)C[C@@H]21 [Example 380, trans-4-(4-((2-(4-chloro-1H -pyrrolo(2,3-c)pyridin-3-yl)ethyl)((1R,3r,5S)-6,6-dimethylbicyclo[3.1.0]hexan-3-yl)carbamoyl)-5-(trifluoromethyl)-1H-pyrazol-1-yl)-1-methylcyclohexanecarboxylic acid]"
6,100000,"CC1(C)CC(CN(CC(=O)c2c(Cl)cncc2Cl)C(=O)c2cnn([C@H]3CC[C@](C)(C(=O)O)CC3)c2Cl)C1 [Example 381, trans-4-(5-chloro-4-((2-(3,5-dichloropyridin-4-yl)-2-oxoethyl)-((3,3-dimethylcyclobutyl)methyl)carbamoyl)pyrazol-1-yl)-1-methylcyclohexane-1-carboxylic acid]"
7,257000,"Cc1c(C(=O)N(CC(=O)c2c(Cl)cncc2Cl)CC2CC(C)(C)C2)cnn1[C@H]1CC[C@](C)(C(=O)O)CC1 [Example 382, trans-4-(4-((2-(3,5-dichloropyridin-4-yl)-2-oxoethyl)-((3,3-dimethylcyclobutyl)methyl)carbamoyl)-5-methylpyrazol-1-yl)-1-methylcyclohexane-1-carboxylic acid]"
8,39800,"CC1(C)[C@@H]2C[C@H](N(C[C@H](O)c3c(F)cncc3Cl)C(=O)c3cnn([C@H]4CC[C@](C)(C(=O)O)CC4)c3C(F)(F)F)C[C@@H]21 [Example 383, trans-4-(4-((2-(3-chloro-5-fluoropyridin-4-yl)-2-hydroxyethyl)((1R,3r,5S)-6,6-dimethylbicyclo[3.1.0]hexan-3-yl)carbamoyl)-5-(trifluoromethyl)-1H-pyrazol-1-yl)-1-methylcyclohexanecarboxylic acid]"
9,347000,"CC1(C)[C@@H]2C[C@H](N(C[C@@H](O)c3c(F)cncc3Cl)C(=O)c3cnn([C@H]4CC[C@](C)(C(=O)O)CC4)c3C(F)(F)F)C[C@@H]21 [Example 384, trans-4-(4-((2-(3-chloro-5-fluoropyridin-4-yl)-2-hydroxyethyl)((1R,3r,5S)-6,6-dimethylbicyclo[3.1.0]hexan-3-yl)carbamoyl)-5-(trifluoromethyl)-1H-pyrazol-1-yl)-1-methylcyclohexanecarboxylic acid]"
10,18600,"CC1(C)[C@@H]2C[C@H](N(CC(=O)c3c(Cl)cccc3Cl)C(=O)c3cnn([C@H]4CC[C@](C)(C(=O)O)CC4)c3C3CC3)C[C@@H]21 [Example 385, trans-4-(5-cyclopropyl-4-((2-(2,6-dichlorophenyl)-2-oxoethyl)((1R,3r,5S)-6,6-dimethylbicyclo[3.1.0]hexan-3-yl)carbamoyl)-1H-pyrazol-1-yl)-1-methylcyclohexanecarboxylic acid]"
11,141000,"CC12CCC(CN(CC(=O)c3c(Cl)cncc3Cl)C(=O)c3cnn([C@H]4CC[C@](C)(C(=O)O)CC4)c3Cl)(CC1)O2 [Example 386, trans-4-(5-chloro-4-((2-(3,5-dichloropyridin-4-yl)-2-oxoethyl)-((1-methyl-7-oxabicyclo[2.2.1]heptan-4-yl)methyl)carbamoyl)pyrazol-1-yl)-1-methylcyclohexane-1-carboxylic acid]"
12,69200,"Cc1cncc(Cl)c1C(=O)CN(C(=O)c1cnn([C@H]2CC[C@](C)(C(=O)O)CC2)c1C(F)(F)F)[C@H]1C[C@@H]2[C@H](C1)C2(C)C [Example 387, trans-4-(4-((2-(3-chloro-5-methylpyridin-4-yl)-2-oxoethyl)((1R,3r,5S)-6,6-dimethylbicyclo[3.1.0]hexan-3-yl)carbamoyl)-5-{trifluoromethyl)-1H-pyrazol-1-yl)-1-methylcyclohexanecarboxylic acid]"
13,72400,"C[C@]1(C(=O)O)CC[C@H](n2ncc(C(=O)N(CC(=O)c3c(Cl)cncc3Cl)CC3(C(F)(F)F)CC3)c2Cl)CC1 [Example 388, trans-4-(5-chloro-4-((2-(3,5-dichloropyridin-4-yl)-2-oxoethyl)-((1-(trifluoromethyl)cyclopropyl)methyl)carbamoyl)pyrazol-1-yl)-1-methylcyclohexane-1-carboxylic acid]"
14,29500,"CC1(C)CCC(N(CC(=O)c2c(Cl)cccc2Cl)C(=O)c2cnn([C@H]3CC[C@](C)(C(=O)O)CC3)c2Cl)CC1 [Example 389, trans-4-(5-chloro-4-((2-(2,6-dichlorophenyl)-2-oxoethyl)-(4,4-dimethylcyclohexyl)carbamoyl)pyrazol-1-yl)-1-methylcyclohexane-1-carboxylic acid]"
15,331000,"CC1(C)[C@@H]2C[C@H](N(C[C@H](O)c3ncccc3Cl)C(=O)c3cnn([C@H]4CC[C@](C)(C(=O)O)CC4)c3C(F)(F)F)C[C@@H]21 [Example 390, trans-4-(4-((2-(3-chloropyridin-2-yl)-2-hydroxyethyl)((1R,3r,5S)-6,6-dimethylbicyclo[3.1.0]hexan-3-yl)carbamoyl)-5-(trifluoromethyl)-1H-pyrazol-1-yl)-1-methylcyclohexanecarboxylic acid]"
16,141000,"CC1(C)[C@@H]2C[C@H](N(C[C@@H](O)c3ncccc3Cl)C(=O)c3cnn([C@H]4CC[C@](C)(C(=O)O)CC4)c3C(F)(F)F)C[C@@H]21 [Example 391, trans-4-(4-((2-(3-chloropyridin-2-yl)-2-hydroxyethyl)((1R,3r,5S)-6,6-dimethylbicyclo[3.1.0]hexan-3-yl)carbamoyl)-5-(trifluoromethyl)-1H-pyrazol-1-yl)-1-methylcyclohexanecarboxylic acid]"
17,28800,"Cc1[nH]c2cccc(Cl)c2c1CCN(C(=O)c1cnn([C@H]2CC[C@](C)(C(=O)O)CC2)c1C(F)(F)F)[C@H]1C[C@@H]2[C@H](C1)C2(C)C [Example 392, trans-4-(4-((2-(4-chloro-2-methyl-1H-indol-3-yl)ethyl)((1R,3r,5S)-6,6-dimethylbicyclo[3.1.0]hexan-3-yl)carbamoyl)-5-(trifluoromethyl)-1H-pyrazol-1-yl)-1-methylcyclohexanecarboxylic acid]"
18,4.57e+06,"CC1(C)[C@@H]2C[C@H](N(C[C@@](C)(O)c3ccccc3Cl)C(=O)c3cnn([C@H]4CC[C@](C)(C(=O)O)CC4)c3C(F)(F)F)C[C@@H]21 [Example 393, trans-4-(4-((2-(2-chlorophenyl)-2-hydroxypropyl)((1R,3r,5S)-6,6-dimethylbicyclo[3.1.0]hexan-3-yl)carbamoyl)-5-(trifluoromethyl)-1H -pyrazol-1-yl)-1-methylcyclohexanecarboxylic acid]"
19,20400,"CCC(F)(CC)CN(CC(=O)c1c(Cl)cncc1Cl)C(=O)c1cnn([C@H]2CC[C@](C)(C(=O)O)CC2)c1C(F)(F)F [Example 394, trans-4-(4-((2-(3,5-dichloropyridin-4-yl)-2-oxoethyl)-(2-ethyl-2-fluorobutyl)carbamoyl)-5-(trifluoromethyl)pyrazol-1-yl)-1-methylcyclohexane-1-carboxylic acid]"
20,91200,"CCC(F)(CC)CN(CC(=O)c1c(Cl)cncc1Cl)C(=O)c1cnn([C@H]2CC[C@](C)(C(=O)O)CC2)c1Cl [Example 395, trans-4-(5-chloro-4-((2-(3,5-dichloropyridin-4-yl)-2-oxoethyl)-(2-ethyl-2-fluorobutyl)carbamoyl)pyrazol-1-yl)-1-methylcyclohexane-1-carboxylic acid]"
